The values below come from US6699889B2, “Use of glucose uptake enhancer for reducing post-ischemic injury of the heart” (SmithKline Beecham p.l.c., priority 1998, dated 2004).

The subject of experiment [1] is isolated working hearts from male Wistar rats. The experiment is described as follows: Isolated working hearts from normal male Wistar rats: baseline ventricular function and recovery after 30 min zero-flow ischaemia and re-perfusion. The following applies: normal rat hearts. Here is the method: (§1) A solution of streptozotocin (STZ commercially available) was prepared in citrate buffer (40 mg/ml).
An acclimatisation period of at least one week was allowed prior to experiment.
(§2) Perfusion of isolated hearts: Rats were anaesthetized using thiopental sodium (50 mg/kg body weight intraperitoneally). Hearts from normoglycaemic and one-month STZ-induced diabetic rats, were quickly removed and immersed in ice-cold buffer to produce an immediate cessation of contractility. The aorta was dissected free and then mounted onto a cannula attached to a perfusion apparatus. Retrograde perfusion of the heart was started for 10 min by the Langendorff method and then switched to perfusion using the working-heart technique. […] The perfusate was not recirculated. Preload was held at a pressure of 15 cm H2O and afterload, as well as coronary perfusion pressure, were kept constant at 80 cm H2O.
Stroke volume (ml/beat) was derived by dividing cardiac output by heart rate.
Induction of global ischaemia and re-perfusion: Total ischaemia was initiated by clamping the left atrium and the aortic perfusion tubes and reducing coronary flow to zero for 30 minutes. The hearts were then re-perfused at 37° C. in working heart mode and recovery of ventricular function was followed for 30 minutes.
(§3) Statistical significance of differences was determined using Student's t-test.

The test system of experiment [2] is isolated working hearts from STZ-diabetic rats. The experiment is described as follows: Isolated working hearts from STZ-diabetic male Wistar rats: baseline ventricular function and zero-flow ischaemia and re-perfusion. The conditions noted are these: diabetic rat hearts. Here is the method:
as §1
The development of diabetes and its persistence were monitored by serial quantitative measurements of glucose in the urine with reagent strips. On the day of the experiment, the severity of diabetes was assessed by measuring glucose concentrations from blood samples collected at the time of heart excision. Only rats with plasma glucose levels exceeding 20 mM were considered diabetic and included in these experiments.
as §2
Stroke volume (ml/beat) was derived by dividing cardiac output by heart rate. […]
as §3

Take `CN(CCOc1ccc(CC2SC(=O)NC2=O)cc1)c1ccccn1` (centres unmarked) [Compound (I), 5-[4-[2-(N-methyl-N-(2-pyridyl)amino)ethoxy]benzyl]thiazolidine-2,4-dione]: the “Protective properties in hearts subjected to zero-flow ischaemia in vitro” value in experiment [1] and in experiment [2] was “protective properties of rapid onset” in each case.
